Laboratory results reported in the METLIN SMRT retention time set (Domingo-Almenara et al. 2019).

Assay: gradient 5% acetonitrile 3 min, to 50% in 2 min, to 85% in 15 min, held 3 min, 100 µL/min
Details: column: Zorbax Extend-C18 2.1 x 50 mm; eluents: water / acetonitrile, 0.1% formic acid
Procedure, shortened: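 Retention time was recorded from adduct peaks, which were picked computationally and each inspected manually. Pure standards ran in mixtures of ~100 molecules on HPLC coupled to a quadrupole time-of-flight mass spectrometer, in positive and negative ionization mode, through a Zorbax Extend-C18 column (2.1 × 50 mm, 1.8 μm) at 100 μL/min. Eluents were water and acetonitrile, each with 0.1% formic acid.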

RP-LC retention time [s] | SMILES
748 | Cc1ccc(CNC(=O)CN2CCN(C(=O)Nc3ccc(Br)cc3)CC2=O)o1
651 | Cc1ccc2[nH]c(=O)c(CCC(=O)O)cc2c1
582 | CCCCN(C)Cc1nc2nc(C)cc(N3CCOCC3)n2n1
715 | Cc1ccc(CNC(=O)C2CCN(S(=O)(=O)c3ccc4c(c3)NC(=O)CO4)CC2)o1
730 | CCCNC(=O)N(C1CCOCC1)C1CCN(C(=O)CCc2c[nH]c3ccccc23)CC1
588 | CCCN(CCC)C(=O)c1cc(NC(=O)CC)cnc1N1CCNCC1
1030 | COc1ccc(N2CC(c3nc(-c4ccc(N(C)C)cc4)no3)CC2=O)cc1Cl (configuration not stated)
886 | CCCn1cc(S(=O)(=O)Nc2ccc(OC)cc2)c2cccnc21
814 | CCc1cc(C(=O)N2CCN(c3ccccc3)CC2)nc2ccnn12
1230 | COc1cc2c(cc1OC)C(C(=O)N1CCN(c3ccccn3)CC1)C(c1cccnc1)N(C)C2=O (configuration not stated)
591 | O=C(NCCN1CCCCC1)c1ccc(-c2ccc(N3CCSCC3)nc2)cc1
992 | Cc1nc(C)c(C(=O)Nc2nc(-c3ccc(Cl)cc3)cs2)s1
625 | CCN1CCN(C(=O)CSCc2nc3cccnc3n2C2CCCCC2)CC1
865 | CCn1cc(-c2nc(CC(=O)Nc3ccc(C)cc3F)cs2)c2cccnc21
558 | O=C(NCc1c[nH]c2ncccc12)C1CCC1
804 | Cc1[nH]c(C(=O)N2CCCC(C(=O)NCc3ccc4c(c3)OCO4)C2)c(C)c1C (configuration not stated)
884 | O=C(NCc1ccc(Br)cc1)C1CCN(c2nnc(-c3ccccc3)o2)CC1
1210 | COc1ccccc1-c1csc(-c2nnn(-c3cccc(Cl)c3)c2N)n1
712 | COc1cccc(CNC(=O)N2CCC(n3c(-c4ccco4)nc4cccnc43)C2)c1 (configuration not stated)
613 | c1cn(-c2cc(N3CCCCC3)ncn2)cn1
985 | CCCCn1cnc2c(-c3ccccc3)cn(CC(=O)NC(C)CC)c2c1=O (configuration not stated)
709 | COc1ccc(C)cc1NS(=O)(=O)c1ccc2c(c1)CCCC(=O)N2
980 | O=C(c1ccc2c(c1)N(Cc1ccccc1)C(=O)CO2)N1CCc2ccccc21

RP-LC retention time [s] | SMILES
670 | Cc1cccc(-c2nc3cnccn3c2NCCC(=O)NC2CCCC2)c1
830 | O=C(NC1CC1)c1ccc(OCC2CCN(C(=O)c3ccc(Br)o3)CC2)cc1
1090 | CC(C)c1ccc(Oc2nccn3c(=O)n(CC(=O)Nc4ccc(Br)cc4)nc23)cc1
922 | COc1ccccc1NC(=O)c1cnc2c(c1)c(=O)n(C)c(=O)n2-c1ccccc1
690 | O=C(CSc1ccc(-c2ccco2)nn1)N1CCCCC1
1050 | CCN1C(=O)COc2ccc(-c3noc(/C=C/c4ccc(OC)c(OC)c4)n3)cc21
971 | CCc1nc2cc(-c3noc(-c4ccnn4C)n3)ccc2o1
712 | O=C(c1ccc(Cn2cncn2)cc1)N1CCN(c2ccccc2F)CC1
935 | O=C(NCc1ccco1)N1CCN(c2nc3cccnc3n(Cc3ccccc3)c2=O)CC1
828 | O=C(C1CC(=O)N(c2ccccc2)C1)N1CCSCC1 (configuration not stated)
906 | CCOC(=O)C1=CN(CC(=O)NCc2ccc(Cl)cc2)S(=O)(=O)N=C1C
884 | Cc1nn(-c2ccccc2)c(C)c1S(=O)(=O)N1CCC(C(=O)NCc2ccc3c(c2)OCO3)CC1
671 | CCc1ccc2c(c1)-c1ccccc1S(=O)(=O)N2CC(=O)NCCN1CCOCC1
664 | CCC(CC)NC(=O)C1CCCCc2nnc(C(C)C)n21 (configuration not stated)
1290 | Cc1sc(NC(=O)CCC2CCCCC2)nc1-c1ccc2c(c1)N(C)C(=O)CO2
640 | CC(C)c1noc(C2CCCN(S(=O)(=O)c3cn(C)cn3)CCC(=O)NCC2)n1 (configuration not stated)
798 | CCOc1ccccc1NS(=O)(=O)c1cc(-c2c(C)noc2NC(C)=O)ccc1OC
671 | Cc1ccnc(N2CCCC(C(=O)NCCN(CCc3ccccc3)Cc3ccco3)C2)n1 (configuration not stated)
824 | CCCNC(=O)c1nnc(-c2ccc(S(=O)(=O)N3CCCC3)cc2)o1
1110 | CC(=O)Oc1ccc(OC(C)=O)c2c1CC(C)=C(C)C2
558 | Cc1sc2cc(C(=O)N3CCN(c4ccccn4)CC3)[nH]c2c1CN1CCCC1
680 | COCCSc1nnc(NC(=O)C2CCN(C(=O)c3ccccc3F)CC2)s1
614 | O=C(CN1C(=O)CCSc2ccccc21)NCCCN1CCN(Cc2ccccc2)CC1

RP-LC retention time [s] | SMILES
887 | Cc1nc(Nc2ccc(F)cn2)sc1C(=O)NC(C)c1ccc(F)cc1 (configuration not stated)
1210 | CCOC(=O)c1cccc(NC(=O)N2CCc3cn(C)c4cccc(c34)C2)c1
697 | CSc1nnc(-c2nn(C)c3c2CN(C(=O)c2ccccc2F)CC3)n1C
614 | CN(C)C(=O)c1ccc2oc(CN3CCN(C(=O)NC4CCCCC4)CC3)nc2c1
790 | COc1ccc2[nH]cc(CCNC(=O)Cc3ccc(F)cc3)c2c1
622 | CC(C)Cn1c(=O)c2sccc2n2c(CCC(=O)NCc3cc(F)ccc3F)nnc12
705 | Cn1c(CCNC(=O)c2ccc(C(C)(C)C)cc2)nc2cccnc21
730 | COc1cc(OC)c(NC(=O)CN2CCC(C(=O)N3CC(C)CC(C)C3)CC2)cc1Cl (configuration not stated)
800 | CCC(C)OC(=O)C1=C(C)NC(=O)NC1c1ccccc1F (configuration not stated)
571 | CCN(CC)CCNC(=O)C1(O)c2ccccc2NC(=O)N1c1ccc(C)c(C)c1 (configuration not stated)
805 | O=C(NCc1ccc2c(c1)OCO2)C1Cn2cccc2C(=O)N1Cc1ccccc1 (configuration not stated)
932 | COc1ccccc1CNC(=O)Cn1c(=O)cc(-c2nc(C3CC3)no2)c2ccccc21
654 | CCCS(=O)(=O)N1CC(n2cc(C(=O)N3CCCC3)nn2)C1
1030 | CCOc1ccc(-c2nc(Cn3ccn4nc(-c5ccc(OC)cc5)cc4c3=O)c(C)o2)cc1OC
925 | CCc1ccc(C(=O)N2CC3CN(S(=O)(=O)c4cccc(C)c4)CC(C2)O3)cc1
624 | Cc1nc(N)sc1-c1ccnc(Nc2ccc(N3CCOCC3)cc2)n1
898 | COc1ccccc1N1CCN(C(=O)CN2C(=O)CC(c3cccs3)=Nc3ccccc32)CC1
830 | CCOc1ccccc1CNC(=O)Cc1csc2nc(-c3ccccc3)cn12
735 | COc1cncc(C(=O)Nc2cc(F)ccc2F)c1
645 | COCCCNC(=O)c1ncoc1-c1ccccc1C(=O)N1CCCC1
784 | O=C(Nc1ccc(C(F)(F)F)cc1)N1CC(n2cnnc2-c2ccccc2)C1
